Measurements: the NIST ThermoML archive (doi:10.1016/j.tca.2015.10.015)
± gives the expanded uncertainty stated by the source.

Experiments:
[1] = Molar enthalpy of transition or fusion; conditions: Crystal; DSC
[2] = Crystal; DTA

With CCCCCCCCCCCCCCCCOC(=O)/C=C\C(=O)O [maleic acid monohexadecyl ester] as the compound, how does the “Molar enthalpy of transition or fusion” value [1] read?
Its value is 17.1 ± 0.454 kcal/mol.

What about the Normal melting temperature [2] of the same compound?
The Normal melting temperature was 71.80 ± 3 °C.

With CCCCCCCCOC(=O)CCC(=O)O [succinic acid monooctyl ester] as the compound, how does the “Molar enthalpy of transition or fusion” value [1] read?
Its value is 9.99 ± 0.263 kcal/mol.

What about the Normal melting temperature [2] of the same compound?
Its Normal melting temperature is 36.50 ± 1.1 °C.

Which “Molar enthalpy of transition or fusion” value [1] does the source give for CCCCCCCCCCCCCCCCCCCCCCOC(=O)CCC(=O)O [succinic acid monodocosyl ester] here?
Its value is 22.2 ± 0.574 kcal/mol.

And the Normal melting temperature [2]?
Its Normal melting temperature is 73.60 ± 1.1 °C.

With CCCCCCCCCCCCCCCCCCCCCCOC(=O)/C=C\C(=O)O [maleic acid monodocosyl ester] as the compound, how does the “Molar enthalpy of transition or fusion” value [1] read?
The value was 20.8 ± 0.55 kcal/mol.

And the Normal melting temperature [2]?
The Normal melting temperature was 82.00 ± 5 °C.

With CCCCCCCCCCCCOC(=O)/C=C\C(=O)O [maleic acid monododecyl ester] as the compound, how does the “Molar enthalpy of transition or fusion” value [1] read?
The value was 12.4 ± 0.335 kcal/mol.

And the Normal melting temperature [2]?
Its Normal melting temperature is 51.30 ± 4 °C.

Which results are given for CCCCCCCCCCCCOC(=O)CCC(=O)O [butanedioic acid, monododecyl ester]?
Molar enthalpy of transition or fusion [1]: 12.7 ± 0.335 kcal/mol; Normal melting temperature [2]: 45.80 ± 2.1 °C

With CCCCCCCCCCCCCCCCOC(=O)CCC(=O)O [succinic acid monohexadecyl ester] as the compound, how does the “Molar enthalpy of transition or fusion” value [1] read?
The value was 15.8 ± 0.43 kcal/mol.

What about the Normal melting temperature [2] of the same compound?
The Normal melting temperature was 64.20 ± 1.1 °C.

With CCCCCCCCOC(=O)/C=C\C(=O)O [maleic acid monooctyl ester] as the compound, how does the “Molar enthalpy of transition or fusion” value [1] read?
The value was 7.93 ± 0.215 kcal/mol.

What about the Normal melting temperature [2] of the same compound?
The Normal melting temperature was 31.10 ± 3 °C.
